Experimental data from PMC8921065, “Combination of terbium-161 with somatostatin receptor antagonists—a potential paradigm shift for the treatment of neuroendocrine neoplasms” (European Journal of Nuclear Medicine and Molecular Imaging, 2021).
Values joined by “and” are separate entries in the source; they are usually repeats but may differ in a detail not shown here. Identical values can stand only once. Like-named read-outs stand apart in the source and are kept apart here. Where a SMILES comes first, the peptide text is derived from it. Bridges are numbered along the chain shown (N, C = ends). [ ]: non-standard residue; d: D form. The star is where a group is joined. DOTA = O=C(O)CN1CCN(CC(=O)O)CCN(CC(=O)*)CCN(CC(=O)O)CC1; dPhe(4-NHCONH2) = NC(=O)Nc1ccc(C[C@@H](N)C(=O)O)cc1; Phe(4-Cl) = N[C@@H](Cc1ccc(Cl)cc1)C(=O)O

Tests used:
AR42J tumor-bearing mice [1] = assay: Therapy study, therapeutic efficacy; details: for tumor growth delay: day 0 and day 7; for Time frame of euthanasia: end of study day 49
Description: The therapy study was initiated with mice randomly assigned to five groups (n = 6) when the AR42J tumors reached an average volume of 99 ± 16 mm^3. […] The endpoint criteria were defined according to a scoring system which required euthanasia of mice with a score ≥ 3 (Supplementary Material).
For the subsequent phase, in which the tumors started to regrow, the doubling time of the tumor volume was calculated based on the fitted exponential tumor growth curve. The average ± SD of tumor growth delay and of the doubling time of the tumor volume in single mice, respectively, were compared among groups with a one-way ANOVA with Tukey’s multiple comparisons post-test. The survival times of mice were presented by Kaplan–Meier curves and analyzed using a log-rank test (Mantel-Cox).
Definition of tumor volume (V) and relative tumor volume (RTV): The tumor dimension was determined by measuring the longest tumor axis (L) and its perpendicular axis (W) with a digital caliper. The tumor volume (TV) was calculated according to the equation [V = 0.5 × (L × W^2)]. The relative tumor volume (RTV) was defined as [TVx/TV0], where TVx is the tumor volume in mm^3 at a given Day x and TV0 the tumor volume in mm^3 at Day 0.
Scoring system: Endpoint criteria were defined using a scoring system which required euthanasia of mice with a score ≥3. Every second day, the following criteria were assessed in the mice, assigning a score from 0–3 for each criterion: (i) appearance (general status, skin color, etc.), (ii) behavior (vitality, sociality, crouching etc.), (iii) body weight (stable, loss >5 ≤10%, loss >10 <15%, loss ≥ 15% compared to initial body weight), (iv) tumor size (<800 mm^3, ≥800 and <900 mm^3, ≥900 and <1000 mm^3, ≥1000 mm^3), (v) tumor ulceration. A score ≥3 was for example due to: (i) appearance of wrinkled, translucent skin, (ii) mouse in crouching position and/or apathetic, (iii) a body weight loss of ≥15% of initial body weight, (iv) a tumor volume of ≥1000 mm^3, (iii/iv) a combination of a tumor size of ≥800 mm^3 and body weight loss of ≥10% and/or (v) ulceration of the tumor.

metastatic NENs = details: human, in vivo; cited from earlier work
[2] = Early side effects: blood plasma chemistry; type: in vivo, mice; details: endpoint of the therapy
[3] = Early side effects: relative body weight, organ masses and mass ratios; type: in vivo, mice; details: at euthanasia
Description: At the same time, relevant organs and tissues were collected, and the masses were put into relation to the brain mass of the respective mouse in order to allow the comparison of organ-to-brain and organ-to-body weight ratios among the single treatment groups (Supplementary Material).
Definition of relative body weight (RBW): The RBW was defined as [BWx/ BW0], where BWx is the body weight in gram at a given Day x and BW0 the body weight in gram at Day 0.

AR42J tumor-bearing mice [4] = details: 2 h p.i., 1.0 nmol/mouse, ref Borgna et al., 2021 [11], cited from earlier work
in vivo = details: mouse, iv, total radioactivity

C[C@@H](O)[C@@H]1NC(=O)[C@H](CCCCN)NC(=O)[C@@H](Cc2ccc(NC(N)=O)cc2)NC(=O)[C@H](Cc2ccc(O)cc2)NC(=O)[C@H](NC(=O)[C@H](Cc2ccc(Cl)cc2)NC(=O)CN2CCN(CC(=O)O)CCN(CC(=O)O)CCN(CC(=O)O)CC2)CSSC[C@@H](C(=O)N[C@H](Cc2ccc(O)cc2)C(N)=O)NC1=O [[^177Lu]Lu-DOTA-LM3] [metal not drawn] ({DOTA}-[Phe(4-Cl)][dC]Y[dPhe(4-NHCONH2)]KTC[dY]-NH2; disulfide 2-7 (inferred); C-terminus assumed)
tumor growth delay (AR42J tumor-bearing mice [1]; 2 × 10 MBq, 0.2 nmol): 35 ± 7 days | mice with exponential tumor regrowth (AR42J tumor-bearing mice [1]; after the growth delay): 5 out of 6 | Median survival (AR42J tumor-bearing mice [1]; mouse, in vivo): 48.5 days | mice surviving until the end of the study (AR42J tumor-bearing mice [1]; mouse, in vivo): three out of six mice | doubling time of the tumor volume (AR42J tumor-bearing mice [1]; regrowth phase, 2 × 10 MBq, 0.2 nmol): 3.8 ± 1.1 days | tolerability in patients (metastatic NENs): well tolerated | tumor doses compared to [177Lu]Lu-DOTATOC (metastatic NENs): higher tumor doses | ALB [2]: 23 ± 1 g/L | ALP [2]: 66 ± 5 U/L | BUN [2]: 8.2 ± 1.9 mmol/L and 8.2 ± 1.8 mmol/L | CRE [2]: < 18 µmol/L and 19 µmol/L | TBIL [2]: < 3 µmol/L and 4 ± 1 µmol/L | Organ mass Brain [3]: 471 ± 30 mg | Organ mass Kidneys [3]: 336 ± 13 mg | Organ mass Liver [3]: 1254 ± 106 mg | Organ mass Spleen [3]: 92 ± 17 mg

C[C@@H](O)[C@@H]1NC(=O)[C@H](CCCCN)NC(=O)[C@@H](Cc2c[nH]c3ccccc23)NC(=O)[C@H](Cc2ccc(O)cc2)NC(=O)[C@@H](NC(=O)[C@@H](Cc2ccccc2)NC(=O)CN2CCN(CC(=O)O)CCN(CC(=O)O)CCN(CC(=O)O)CC2)CSSC[C@@H](C(=O)N[C@H](CO)[C@@H](C)O)NC1=O [[^161Tb]Tb-DOTATOC] [metal not drawn]
tumor growth delay (AR42J tumor-bearing mice [1]; 2 × 10 MBq, 0.2 nmol): 9.0 ± 5.5 days | Time frame of euthanasia (AR42J tumor-bearing mice [1]; 2 × 10 MBq, 0.2 nmol): 20 to 26 days | Median survival (AR42J tumor-bearing mice [1]; mouse, in vivo): 21 days | ALB [2]: 23 ± 2 g/L | ALP [2]: 76 ± 21 U/L | BUN [2]: 5.8 ± 1.0 mmol/L | CRE [2]: <18 (n=6) µmol/L | TBIL [2]: < 3 µmol/L and 4 ± 1 µmol/L | Organ mass Brain [3]: 440 ± 23 mg | Organ mass Kidneys [3]: 352 ± 27 mg | Organ mass Liver [3]: 1195 ± 57 mg | Organ mass Spleen [3]: 86 ± 19 mg | AR42J tumor uptake (AR42J tumor-bearing mice [4]): 8.2 ± 0.2 % IA/g | Adrenals uptake (AR42J tumor-bearing mice [4]): 0.25 ± 0.06 % IA/g | Blood uptake (AR42J tumor-bearing mice [4]): ≤0.10 % IA/g | Femur uptake (AR42J tumor-bearing mice [4]): ≤0.10 % IA/g | Heart uptake (AR42J tumor-bearing mice [4]): ≤0.10 % IA/g | Intestines uptake (AR42J tumor-bearing mice [4]): 0.21 ± 0.13 % IA/g | Kidneys uptake (AR42J tumor-bearing mice [4]): 9.9 ± 1.3 % IA/g | Liver uptake (AR42J tumor-bearing mice [4]): 0.17 ± 0.01 % IA/g | Lung uptake (AR42J tumor-bearing mice [4]): 0.27 ± 0.03 % IA/g | Muscle uptake (AR42J tumor-bearing mice [4]): ≤0.10 % IA/g | Pancreas uptake (AR42J tumor-bearing mice [4]): 0.71 ± 0.07 % IA/g | Spleen uptake (AR42J tumor-bearing mice [4]): 0.11 ± 0.02 % IA/g | Stomach uptake (AR42J tumor-bearing mice [4]): 0.74 ± 0.38 % IA/g

C[C@@H](O)[C@@H]1NC(=O)[C@H](CCCCN)NC(=O)[C@@H](Cc2ccc(NC(N)=O)cc2)NC(=O)[C@H](Cc2ccc(O)cc2)NC(=O)[C@H](NC(=O)[C@H](Cc2ccc(Cl)cc2)NC(=O)CN2CCN(CC(=O)O)CCN(CC(=O)O)CCN(CC(=O)O)CC2)CSSC[C@@H](C(=O)N[C@H](Cc2ccc(O)cc2)C(N)=O)NC1=O [DOTA-LM3]
AR42J tumor uptake (AR42J tumor-bearing mice [4]; listed as [^161Tb]Tb/[^177Lu]Lu-DOTA-LM3): ~ 18 % IA/g

C[C@@H](O)[C@@H]1NC(=O)[C@H](CCCCN)NC(=O)[C@@H](Cc2c[nH]c3ccccc23)NC(=O)[C@H](Cc2ccc(O)cc2)NC(=O)[C@@H](NC(=O)[C@@H](Cc2ccccc2)NC(=O)CN2CCN(CC(=O)O)CCN(CC(=O)O)CCN(CC(=O)O)CC2)CSSC[C@@H](C(=O)N[C@H](CO)[C@@H](C)O)NC1=O [DOTATOC, DOTA-[Tyr^3]-octreotide]
tissue uptake at 2 h (in vivo; AR42J tumor, 0.04 nmol/mouse): ~17 %ID/g | tissue uptake at 2 h (in vivo; AR42J tumor, 0.2 nmol/mouse): ~15 %ID/g | tissue uptake at 2 h (in vivo; liver): ~0.2 %ID/g | AR42J tumor uptake (AR42J tumor-bearing mice [4]; listed as [^161Tb]Tb-/[^177Lu]Lu-DOTATOC): ~ 8 % IA/g

C[C@@H](O)[C@@H]1NC(=O)[C@H](CCCCN)NC(=O)[C@@H](Cc2c[nH]c3ccccc23)NC(=O)[C@H](Cc2ccc(O)cc2)NC(=O)[C@@H](NC(=O)[C@@H](Cc2ccccc2)NC(=O)CN2CCN(CC(=O)O)CCN(CC(=O)O)CCN(CC(=O)O)CC2)CSSC[C@@H](C(=O)N[C@H](CO)[C@@H](C)O)NC1=O [[^177Lu]Lu-DOTATOC] [metal not drawn]
tumor growth delay (AR42J tumor-bearing mice [1]; 2 × 10 MBq, 0.2 nmol): 6.0 ± 4.4 days and 6 ± 4 days | Time frame of euthanasia (AR42J tumor-bearing mice [1]; 2 × 10 MBq, 0.2 nmol): 12 to 22 days | Median survival (AR42J tumor-bearing mice [1]; mouse, in vivo): 19.5 days | ALB [2]: 24 ± 5 g/L | ALP [2]: 77 ± 8 U/L | BUN [2]: 6.3 ± 0.9 mmol/L | CRE [2]: <18 (n=5) µmol/L | TBIL [2]: < 3 µmol/L and 4 ± 1 µmol/L | Organ mass Brain [3]: 453 ± 31 mg | Organ mass Kidneys [3]: 342 ± 23 mg | Organ mass Liver [3]: 1121 ± 123 mg | Organ mass Spleen [3]: 90 ± 17 mg | AR42J tumor uptake (AR42J tumor-bearing mice [4]): 8.9 ± 1.5 % IA/g | Adrenals uptake (AR42J tumor-bearing mice [4]): 0.28 ± 0.08 % IA/g | Blood uptake (AR42J tumor-bearing mice [4]): ≤0.10 % IA/g | Femur uptake (AR42J tumor-bearing mice [4]): ≤0.10 % IA/g | Heart uptake (AR42J tumor-bearing mice [4]): ≤0.10 % IA/g | Intestines uptake (AR42J tumor-bearing mice [4]): 0.20 ± 0.05 % IA/g | Kidneys uptake (AR42J tumor-bearing mice [4]): 11 ± 1 % IA/g | Liver uptake (AR42J tumor-bearing mice [4]): 0.26 ± 0.07 % IA/g | Lung uptake (AR42J tumor-bearing mice [4]): 0.37 ± 0.06 % IA/g | Muscle uptake (AR42J tumor-bearing mice [4]): ≤0.10 % IA/g | Pancreas uptake (AR42J tumor-bearing mice [4]): 0.80 ± 0.13 % IA/g | Spleen uptake (AR42J tumor-bearing mice [4]): 0.15 ± 0.03 % IA/g | Stomach uptake (AR42J tumor-bearing mice [4]): 0.65 ± 0.11 % IA/g
